Data on 16 compounds can be found in patent EP3212201B1, “NUCLEOSIDE KINASE INHIBITORS” (BCI Pharma, priority 2014, dated 2016).

Holding throughout (assay): FRET-based coupled-enzyme protein kinase inhibition assay
Assay type in all cases: biochemical
Conditions in all cases: compound at 10 µM, 1% DMSO

The target of one assay is IGF1R (Homo sapiens, UniProt P08069). In short, it runs like this: (§1)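 Inhibition was quantified ratiometrically, as coumarin over fluorescein emission following 400 nm excitation, on a doubly labeled peptide whose cleavage by development reagent requires it to remain unphosphorylated. Kinase reactions ran 60 min at room temperature with ATP at apparent Km.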
Chain of IGF1R (P08069 31-1367, species assumed): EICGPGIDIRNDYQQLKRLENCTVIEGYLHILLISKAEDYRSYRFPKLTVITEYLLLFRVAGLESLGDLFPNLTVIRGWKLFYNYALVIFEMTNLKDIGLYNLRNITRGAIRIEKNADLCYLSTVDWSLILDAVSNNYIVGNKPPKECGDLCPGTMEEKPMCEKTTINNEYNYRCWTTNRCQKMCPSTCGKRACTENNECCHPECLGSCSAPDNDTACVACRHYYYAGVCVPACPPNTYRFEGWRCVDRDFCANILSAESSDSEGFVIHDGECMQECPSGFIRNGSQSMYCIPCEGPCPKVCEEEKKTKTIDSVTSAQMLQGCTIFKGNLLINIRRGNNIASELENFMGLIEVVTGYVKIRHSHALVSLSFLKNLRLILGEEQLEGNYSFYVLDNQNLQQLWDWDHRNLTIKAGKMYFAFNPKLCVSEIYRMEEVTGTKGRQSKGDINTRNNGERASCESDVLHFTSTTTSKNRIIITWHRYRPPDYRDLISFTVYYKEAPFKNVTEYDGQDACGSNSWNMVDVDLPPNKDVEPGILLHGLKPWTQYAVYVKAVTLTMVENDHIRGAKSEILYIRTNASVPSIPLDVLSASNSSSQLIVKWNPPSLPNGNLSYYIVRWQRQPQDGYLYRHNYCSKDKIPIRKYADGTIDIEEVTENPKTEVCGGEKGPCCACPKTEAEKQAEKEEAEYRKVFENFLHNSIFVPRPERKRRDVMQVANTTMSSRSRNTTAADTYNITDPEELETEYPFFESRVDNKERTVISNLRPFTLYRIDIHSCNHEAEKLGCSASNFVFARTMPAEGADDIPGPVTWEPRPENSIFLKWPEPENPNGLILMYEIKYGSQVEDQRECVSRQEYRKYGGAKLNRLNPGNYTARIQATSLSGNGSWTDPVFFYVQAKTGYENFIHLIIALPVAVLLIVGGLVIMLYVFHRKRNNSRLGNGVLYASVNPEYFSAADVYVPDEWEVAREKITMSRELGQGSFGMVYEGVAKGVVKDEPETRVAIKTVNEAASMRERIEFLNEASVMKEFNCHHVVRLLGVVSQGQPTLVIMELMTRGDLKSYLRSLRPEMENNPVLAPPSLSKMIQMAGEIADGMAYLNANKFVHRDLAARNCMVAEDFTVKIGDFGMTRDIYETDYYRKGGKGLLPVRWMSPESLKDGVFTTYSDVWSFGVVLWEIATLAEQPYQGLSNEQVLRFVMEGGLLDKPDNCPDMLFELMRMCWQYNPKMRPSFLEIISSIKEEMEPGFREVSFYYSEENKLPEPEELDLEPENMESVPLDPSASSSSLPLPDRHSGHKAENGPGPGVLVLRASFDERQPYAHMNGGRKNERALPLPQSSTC
The target of a further assay is T1, JAK3 (Homo sapiens, UniProt P52333).
T1 sequence (P52333 1-1124): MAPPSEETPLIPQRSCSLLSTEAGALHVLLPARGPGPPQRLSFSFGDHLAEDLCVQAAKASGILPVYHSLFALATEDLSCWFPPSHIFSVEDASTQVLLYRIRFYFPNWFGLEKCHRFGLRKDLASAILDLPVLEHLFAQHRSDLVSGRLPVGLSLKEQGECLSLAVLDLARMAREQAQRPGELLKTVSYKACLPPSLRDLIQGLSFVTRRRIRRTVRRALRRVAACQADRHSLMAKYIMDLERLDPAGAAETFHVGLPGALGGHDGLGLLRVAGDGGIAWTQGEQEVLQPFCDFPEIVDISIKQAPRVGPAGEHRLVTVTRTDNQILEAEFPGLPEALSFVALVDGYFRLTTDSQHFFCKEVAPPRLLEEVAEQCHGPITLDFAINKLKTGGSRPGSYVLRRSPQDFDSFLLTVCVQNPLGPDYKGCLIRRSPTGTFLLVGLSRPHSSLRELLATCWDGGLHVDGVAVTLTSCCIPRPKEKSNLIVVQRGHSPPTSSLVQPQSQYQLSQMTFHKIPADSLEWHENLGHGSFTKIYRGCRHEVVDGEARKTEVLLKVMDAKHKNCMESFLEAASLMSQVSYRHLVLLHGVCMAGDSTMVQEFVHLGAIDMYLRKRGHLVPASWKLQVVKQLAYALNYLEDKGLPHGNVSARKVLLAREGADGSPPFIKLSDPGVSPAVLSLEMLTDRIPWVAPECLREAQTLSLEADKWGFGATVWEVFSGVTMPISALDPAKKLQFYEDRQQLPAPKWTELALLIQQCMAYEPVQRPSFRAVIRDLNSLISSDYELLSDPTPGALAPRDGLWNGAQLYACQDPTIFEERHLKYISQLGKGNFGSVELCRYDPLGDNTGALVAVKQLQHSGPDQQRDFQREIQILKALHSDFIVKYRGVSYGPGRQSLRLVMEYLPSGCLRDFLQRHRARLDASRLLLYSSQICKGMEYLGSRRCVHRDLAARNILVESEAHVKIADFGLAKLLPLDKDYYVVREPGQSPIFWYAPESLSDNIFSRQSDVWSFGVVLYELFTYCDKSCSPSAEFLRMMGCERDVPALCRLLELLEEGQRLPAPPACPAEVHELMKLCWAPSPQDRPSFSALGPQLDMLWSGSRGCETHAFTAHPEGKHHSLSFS
In short, it runs like this: as §1

Another assay addresses KDR (VEGFR2) (Homo sapiens, UniProt P35968). In short, it runs like this:
as §1

A further assay has as its target MAP2K1 (MEK1) (Homo sapiens, UniProt Q02750). In outline:
as §1

Another assay concerns the target MAPK8 (JNK1) (Homo sapiens, UniProt P45983). In short, it runs like this:
as §1

The target in another assay is SRC (Homo sapiens, UniProt P12931). In short, it runs like this: as §1
Chain of SRC (P12931 whole entry, species assumed): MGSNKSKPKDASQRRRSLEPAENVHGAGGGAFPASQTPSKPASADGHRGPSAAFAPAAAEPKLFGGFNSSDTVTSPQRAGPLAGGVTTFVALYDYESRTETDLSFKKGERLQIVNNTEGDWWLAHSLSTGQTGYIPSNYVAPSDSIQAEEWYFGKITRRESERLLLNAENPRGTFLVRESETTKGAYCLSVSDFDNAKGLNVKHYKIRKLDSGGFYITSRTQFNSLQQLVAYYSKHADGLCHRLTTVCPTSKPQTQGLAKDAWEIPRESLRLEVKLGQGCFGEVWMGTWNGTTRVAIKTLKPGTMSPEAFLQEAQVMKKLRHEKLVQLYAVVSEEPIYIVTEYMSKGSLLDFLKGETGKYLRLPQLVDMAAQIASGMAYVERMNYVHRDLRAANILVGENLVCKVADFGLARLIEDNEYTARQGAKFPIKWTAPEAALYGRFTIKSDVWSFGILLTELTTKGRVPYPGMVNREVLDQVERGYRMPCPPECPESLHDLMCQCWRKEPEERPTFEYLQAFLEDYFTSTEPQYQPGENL
The target in the next assay is SYK (Homo sapiens, UniProt P43405). In outline:
as §1

Chain of KDR (VEGFR2) (P35968 20-1356, species assumed): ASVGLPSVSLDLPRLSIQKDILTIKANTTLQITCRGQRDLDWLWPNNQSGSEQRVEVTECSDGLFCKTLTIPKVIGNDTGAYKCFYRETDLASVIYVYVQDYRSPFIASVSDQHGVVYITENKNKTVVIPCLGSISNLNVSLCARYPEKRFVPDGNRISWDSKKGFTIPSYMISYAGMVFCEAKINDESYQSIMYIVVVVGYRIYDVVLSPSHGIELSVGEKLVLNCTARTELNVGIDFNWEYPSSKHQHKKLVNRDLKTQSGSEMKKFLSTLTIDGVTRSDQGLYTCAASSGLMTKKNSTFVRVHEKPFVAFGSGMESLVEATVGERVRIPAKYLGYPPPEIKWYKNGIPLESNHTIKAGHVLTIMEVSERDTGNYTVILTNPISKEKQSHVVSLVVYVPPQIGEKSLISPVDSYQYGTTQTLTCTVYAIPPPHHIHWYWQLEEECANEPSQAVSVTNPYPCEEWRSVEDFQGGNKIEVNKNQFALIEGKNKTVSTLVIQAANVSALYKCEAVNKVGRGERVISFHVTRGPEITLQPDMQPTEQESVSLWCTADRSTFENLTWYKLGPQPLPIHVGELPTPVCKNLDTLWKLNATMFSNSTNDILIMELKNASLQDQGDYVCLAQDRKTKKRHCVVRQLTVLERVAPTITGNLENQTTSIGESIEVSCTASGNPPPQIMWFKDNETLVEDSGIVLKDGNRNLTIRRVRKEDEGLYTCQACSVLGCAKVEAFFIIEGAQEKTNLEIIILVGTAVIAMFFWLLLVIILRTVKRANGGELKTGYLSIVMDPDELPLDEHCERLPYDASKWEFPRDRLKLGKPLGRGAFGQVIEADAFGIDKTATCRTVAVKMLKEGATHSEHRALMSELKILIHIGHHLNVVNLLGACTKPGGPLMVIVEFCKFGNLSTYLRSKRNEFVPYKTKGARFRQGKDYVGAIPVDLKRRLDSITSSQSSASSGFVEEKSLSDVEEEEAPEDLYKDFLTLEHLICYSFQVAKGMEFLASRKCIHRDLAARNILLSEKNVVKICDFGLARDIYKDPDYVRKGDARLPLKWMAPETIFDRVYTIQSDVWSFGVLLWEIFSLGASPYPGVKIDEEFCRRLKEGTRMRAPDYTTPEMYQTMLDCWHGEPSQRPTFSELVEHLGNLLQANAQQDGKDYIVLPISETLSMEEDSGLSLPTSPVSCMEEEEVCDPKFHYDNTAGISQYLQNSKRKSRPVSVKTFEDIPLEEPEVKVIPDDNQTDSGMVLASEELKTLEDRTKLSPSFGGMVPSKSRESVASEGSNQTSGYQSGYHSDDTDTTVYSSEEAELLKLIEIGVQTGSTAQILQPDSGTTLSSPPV
Chain of MAPK8 (JNK1) (P45983 whole entry, species assumed): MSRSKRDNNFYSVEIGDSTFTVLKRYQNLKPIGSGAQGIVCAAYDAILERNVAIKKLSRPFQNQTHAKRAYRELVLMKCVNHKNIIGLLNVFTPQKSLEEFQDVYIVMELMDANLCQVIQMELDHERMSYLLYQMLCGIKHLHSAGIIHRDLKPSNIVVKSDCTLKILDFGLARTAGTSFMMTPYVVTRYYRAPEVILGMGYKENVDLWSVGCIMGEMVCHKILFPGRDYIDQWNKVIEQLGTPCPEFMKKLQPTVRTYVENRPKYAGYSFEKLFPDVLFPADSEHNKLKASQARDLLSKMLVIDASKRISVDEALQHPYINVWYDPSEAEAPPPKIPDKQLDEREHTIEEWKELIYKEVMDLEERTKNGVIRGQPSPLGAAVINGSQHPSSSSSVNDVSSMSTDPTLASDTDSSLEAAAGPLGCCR
Chain of MAP2K1 (MEK1) (Q02750 whole entry, species assumed): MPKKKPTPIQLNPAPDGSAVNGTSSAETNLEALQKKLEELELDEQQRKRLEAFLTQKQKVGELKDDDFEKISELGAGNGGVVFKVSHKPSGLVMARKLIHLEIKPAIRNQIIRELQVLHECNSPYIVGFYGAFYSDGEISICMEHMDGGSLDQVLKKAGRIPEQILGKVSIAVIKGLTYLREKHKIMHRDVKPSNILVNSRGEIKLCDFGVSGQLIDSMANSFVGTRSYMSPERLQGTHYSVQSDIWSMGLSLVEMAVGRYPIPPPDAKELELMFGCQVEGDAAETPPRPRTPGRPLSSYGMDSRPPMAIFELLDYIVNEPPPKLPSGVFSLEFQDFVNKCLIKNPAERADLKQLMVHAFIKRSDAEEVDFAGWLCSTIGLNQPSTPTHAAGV

With `Nc1ncnc2c1ncn2[C@@H]1O[C@H](COC(=O)NCCCc2nc3ccccc3[nH]2)[C@@H](O)[C@H]1O` [Compound C1], the inhibition at 10 µM was 0% on IGF1R; -2% against JAK3; -6% against KDR (VEGFR2); 11% against MAP2K1 (MEK1); 12% at MAPK8 (JNK1); 46% against SRC. In addition, the inhibition at 10 µM on SYK worked out at 3%.

For the compound `C[C@@H](NC(=O)OC[C@H]1O[C@@H](n2cnc3c(N)ncnc32)[C@H](O)[C@@H]1O)c1ccc(Cl)cc1` [Compound C4], the inhibition at 10 µM on IGF1R turned out to be 11%; against JAK3, 6%; at KDR (VEGFR2), 4%; at MAP2K1 (MEK1), 4%; against MAPK8 (JNK1), 14%; against SRC, 33%. The inhibition at 10 µM against SYK is 4%.

On to `Nc1ncnc2c1ncn2[C@@H]1O[C@H](COC(=O)NC[C@H](O)CO)[C@@H](O)[C@H]1O` [Compound C8], for which the inhibition at 10 µM on IGF1R is 5%; on JAK3 it was -2%; against KDR (VEGFR2), 0%; against MAP2K1 (MEK1), 10%; at MAPK8 (JNK1), 13%; against SRC, -13%. On SYK, the inhibition at 10 µM is 7%.

With `Nc1ncnc2c1ncn2[C@@H]1O[C@H](COC(=O)N2CCC[C@H]2CO)[C@@H](O)[C@H]1O` [Compound C9], the inhibition at 10 µM at IGF1R is 9%; on JAK3, -8%; at KDR (VEGFR2), -3%; at MAP2K1 (MEK1) it was -3%; at MAPK8 (JNK1), 3%; against SRC it was 16%. The inhibition at 10 µM against SYK is -4%.

`Nc1ncnc2c1ncn2[C@@H]1O[C@H](COC(=O)N[C@@H]2CCN(Cc3ccccc3)C2)[C@@H](O)[C@H]1O` [Compound C10]: the inhibition at 10 µM on IGF1R was 8%; against JAK3, -2%; against KDR (VEGFR2) it was 8%; against MAP2K1 (MEK1), 0%; against MAPK8 (JNK1), 6%; on SRC, 25%. Besides, the inhibition at 10 µM against SYK amounted to 1%.

As to `Nc1ncnc2c1ncn2[C@@H]1O[C@H](COC(=O)N2CCN(Cc3ccccc3)CC2CO)[C@@H](O)[C@H]1O` (stereo partly shown) [Compound C13], the inhibition at 10 µM against IGF1R was 2%; against JAK3, 1%; against KDR (VEGFR2), -3%; against MAP2K1 (MEK1), 1%; at MAPK8 (JNK1) it was 2%; on SRC, 29%. Further, the inhibition at 10 µM against SYK worked out at 0%.

Consider `CC(C)N1CCC(NC(=O)OC[C@H]2O[C@@H](n3cnc4c(N)ncnc43)[C@H](O)[C@@H]2O)CC1` [Compound C19], for which the inhibition at 10 µM at IGF1R was -2%; at JAK3, -2%; against KDR (VEGFR2), -10%; against MAP2K1 (MEK1), -2%; at MAPK8 (JNK1) it was 0%; against SRC it was -1%. The inhibition at 10 µM against SYK was -1%.

For `Nc1ncnc2c1ncn2[C@@H]1O[C@H](COC(=O)NCCN2CCCC2=O)[C@@H](O)[C@H]1O` [Compound C22], the inhibition at 10 µM at IGF1R was 4%; against JAK3, -8%; on KDR (VEGFR2), -7%; on MAP2K1 (MEK1), -3%; on MAPK8 (JNK1), 5%; against SRC, 12%. Moreover, on SYK, the inhibition at 10 µM is -8%.

Take `Nc1ncnc2c1ncn2[C@@H]1O[C@H](COC(=O)N2CCN(CCc3ccccc3)CC2)[C@@H](O)[C@H]1O` [Compound C26]: the inhibition at 10 µM against IGF1R was 8%; against JAK3, -7%; against KDR (VEGFR2) it was -3%; against MAP2K1 (MEK1), 4%; on MAPK8 (JNK1), 8%; at SRC, 29%. Besides, the inhibition at 10 µM against SYK was -4%.

Turning to `CN1CCN(CCNC(=O)OC[C@H]2O[C@@H](n3cnc4c(N)ncnc43)[C@H](O)[C@@H]2O)CC1` [Compound C46], the inhibition at 10 µM is 7% against IGF1R; 2% against JAK3; -7% at KDR (VEGFR2); -1% at MAP2K1 (MEK1); -2% at MAPK8 (JNK1); 17% at SRC. In addition, at SYK, the inhibition at 10 µM was 0%.

Consider `Nc1ncnc2c1ncn2[C@@H]1O[C@H](COC(=O)N2CCC(Cc3ccc(F)cc3)C2)[C@@H](O)[C@H]1O` (stereo partly shown) [Compound C66], for which the inhibition at 10 µM on IGF1R was 1%; against JAK3, 0%; on KDR (VEGFR2), 3%; on MAP2K1 (MEK1), -1%; on MAPK8 (JNK1) it was 6%; against SRC, 38%. Moreover, the inhibition at 10 µM against SYK is 1%.

Turning to `N#CCCN1CCN(C(=O)OC[C@H]2O[C@@H](n3cnc4c(N)ncnc43)[C@H](O)[C@@H]2O)CC1` [Compound C70], the inhibition at 10 µM is 1% at IGF1R; -8% against JAK3; -12% against KDR (VEGFR2); 3% against MAP2K1 (MEK1); 8% on MAPK8 (JNK1); 8% at SRC. The inhibition at 10 µM against SYK was -1%.

Take `CN(C)CCNC(=O)OC[C@H]1O[C@@H](n2cnc3c(N)ncnc32)[C@H](O)[C@@H]1O` [Compound C85]: the inhibition at 10 µM is 8% on IGF1R; -12% against JAK3; 2% on KDR (VEGFR2); -3% on MAP2K1 (MEK1); 4% on MAPK8 (JNK1); 17% on SRC. For the same compound, on SYK, the inhibition at 10 µM was -1%.

Regarding `Nc1ncnc2c1ncn2[C@@H]1O[C@H](COC(=O)N2CCN(C(=O)N3CCOCC3)CC2)[C@@H](O)[C@H]1O` [Compound C89], the inhibition at 10 µM was 2% at IGF1R; 2% against JAK3; -6% against KDR (VEGFR2); -2% against MAP2K1 (MEK1); 5% on MAPK8 (JNK1); 8% on SRC. At SYK, the inhibition at 10 µM was -5%.

On to `CS(=O)(=O)N1CC2(CCN(C(=O)OC[C@H]3O[C@@H](n4cnc5c(N)ncnc54)[C@H](O)[C@@H]3O)CC2)c2ccccc21` [Compound C98], for which the inhibition at 10 µM against IGF1R was 8%; against JAK3, -1%; against KDR (VEGFR2), 8%; against MAP2K1 (MEK1), 4%; against MAPK8 (JNK1) it was 4%; at SRC it was 58%. For the same compound, the inhibition at 10 µM against SYK came out at 2%.

Regarding `Nc1ncnc2c1ncn2[C@@H]1O[C@H](COC(=O)N2CCS(=O)(=O)CC2)[C@@H](O)[C@H]1O` [Compound C100], the inhibition at 10 µM against IGF1R was 11%; at JAK3, -2%; at KDR (VEGFR2) it was -3%; at MAP2K1 (MEK1), 5%; on MAPK8 (JNK1), 7%; on SRC, 8%. In addition, at SYK, the inhibition at 10 µM is -3%.
